Test results taken from patent publication US20070128217A1 (priority 2003, published 2007).

Legend:
[1] = test system: antibodies in sera from SARS patients (sera 1a, 1b, 2, 6, 37, 62, London, SARS-yellow, SARS-green); format: binding, human; parameters: Binding of serum 6 to linear peptides of protein X1 of SARS-CoV Urbani / Binding of serum 37 to linear peptides of protein X1 of SARS-CoV Urbani / Binding of serum 6 to looped/cyclic peptide (PEPSCAN-ELISA) / Binding of serum 37 to looped/cyclic peptide (PEPSCAN-ELISA) / Binding of serum 37 to looped/cyclic peptides of protein X1 of SARS-CoV Urbani / Binding of serum 6 to linear peptides of protein X2 / Binding of serum 37 to linear peptides of protein X2 / Binding of serum 37 to looped/cyclic peptides of protein X2 of SARS-CoV Urbani / Binding of serum 6 to linear peptides of protein M of SARS-CoV Urbani / Binding of serum 37 to linear peptides of protein M of SARS-CoV Urbani / Binding of serum 6 to looped/cyclic peptides of protein M of SARS-CoV Urbani / Binding of serum 37 to looped/cyclic peptides of protein M of SARS-CoV Urbani / Binding of serum 6 to linear peptides of protein X3 of SARS-CoV Urbani / Binding of serum 37 to linear peptides of protein X3 of SARS-CoV Urbani / Binding of serum 37 to looped/cyclic peptides of protein X3 of SARS-CoV Urbani / Binding of serum 6 to linear peptides of protein X4 of SARS-CoV Urbani / Binding of serum 37 to linear peptides of protein X4 of SARS-CoV Urbani / Binding of serum 37 to looped/cyclic peptides of protein X4 of SARS-CoV Urbani / Binding of serum 6 to linear peptides of protein X5 of SARS-CoV Urbani / Binding of serum 37 to linear peptides of protein X5 of SARS-CoV Urbani / Binding of serum 37 to looped/cyclic peptides of protein X5 of SARS-CoV Urbani / Binding of serum 6 to linear peptides of protein N of SARS-CoV Urbani / Binding of serum 37 to linear peptides of protein N of SARS-CoV Urbani / Binding of serum 6 to linear peptide (PEPSCAN-ELISA) / Binding of serum 1a to looped/cyclic peptides of protein N of SARS-CoV Urbani / Binding of serum 1b to looped/cyclic peptides of protein N of SARS-CoV Urbani / Binding of serum 2 to looped/cyclic peptides of protein N of SARS-CoV Urbani / Binding of serum 6 to looped/cyclic peptides of protein N of SARS-CoV Urbani / Binding of serum 37 to looped/cyclic peptides of protein N of SARS-CoV Urbani / Binding of serum 62 to looped/cyclic peptides of protein N of SARS-CoV Urbani / Binding of serum London to looped/cyclic peptides of protein N of SARS-CoV Urbani / Binding of serum SARS-green to looped/cyclic peptides of protein N of SARS-CoV Urbani: unit not given here
[2] = test system: control sera (pooled serum of ten healthy LUMC hospital workers; commercial negative donor pooled serum from the Dutch bloodbank); format: binding, human; parameters: Binding of Control serum LUMC to linear peptides / Binding of Control serum Blood-bank to linear peptides / Binding of Control serum LUMC to looped peptides / Binding of Control Serum Blood-Bank to Looped peptides / Binding of Control serum LUMC to linear peptides of the protein M of SARS-CoV Urbani / Binding of Control serum Blood-bank to linear peptides of the protein M of SARS-CoV Urbani / Binding of Control serum LUMC to looped peptides of the protein M of SARS-CoV Urbani / Binding of Control Serum Blood-Bank to Looped peptides of the protein M of SARS-CoV Urbani: unit not given here
[3] = test system: rabbit serum obtained by immunizing a rabbit with the SARS-CoV strain Frankfurt 1; format: binding; parameters: Binding of a rabbit serum to linear peptides / Binding of a rabbit serum to looped peptides / Rabbit serum linear peptides / Rabbit serum looped peptides / Binding of a rabbit serum to linear peptides of protein N of SARS-CoV Urbani (Rabbit serum linear peptides) / Binding of a rabbit serum to looped/cyclic peptides of protein N of SARS-CoV Urbani (Rabbit serum looped peptides): unit not given here

Sequence | Binding of serum 1a to linear peptides of protein X1 of SARS-CoV Urbani [1] | Binding of serum 1a to looped/cyclic peptide (PEPSCAN-ELISA) [1] | Binding of serum 1b to linear peptides of protein X1 of SARS-CoV Urbani [1] | Binding of serum 1b to looped/cyclic peptide (PEPSCAN-ELISA) [1] | Binding of serum 2 to linear peptides of protein X1 of SARS-CoV Urbani [1] | Binding of serum 2 to looped/cyclic peptide (PEPSCAN-ELISA) [1] | Binding of serum 6 to linear peptides of protein X1 of SARS-CoV Urbani [1] | Binding of serum 6 to looped/cyclic peptide (PEPSCAN-ELISA) [1] | Binding of serum 37 to linear peptides of protein X1 of SARS-CoV Urbani [1] | Binding of serum 37 to looped/cyclic peptide (PEPSCAN-ELISA) [1] | Binding of serum 62 to linear peptides of protein X1 of SARS-CoV Urbani [1] | Binding of serum London to linear peptides of protein X1 of SARS-CoV Urbani [1] | Binding of serum SARS-green to linear peptides of protein X1 of SARS-CoV Urbani [1] | Binding of serum SARS-yellow to linear peptides of protein X1 of SARS-CoV Urbani [1] | Binding of Control Serum Blood-Bank to Looped peptides [2] | Binding of Control serum Blood-bank to linear peptides [2] | Binding of Control serum LUMC to linear peptides [2] | Binding of Control serum LUMC to looped peptides [2] | Binding of a rabbit serum to linear peptides [3] | Binding of a rabbit serum to looped peptides [3] | also measured
IYSHLLLVAAGMEAQ | 0.6 | 0.5 | 0.5 | 0.4 | 0.5 | 0.3 | 0.4 | 0.3 | 0.6 | 0.5 | 0.6 | 0.3 | 0.2 | 0.3 | 0.4 | 0.5 | 0.5 | 0.5 | 0.1 | 0.4 | Binding of serum 62 to looped/cyclic peptide (PEPSCAN-ELISA) [1]: 0.5; Binding of serum London to looped/cyclic peptide (PEPSCAN-ELISA) [1]: 0.2; Binding of serum SARS-green to looped/cyclic peptide (PEPSCAN-ELISA) [1]: 0.2; Binding of serum SARS-yellow to looped/cyclic peptide (PEPSCAN-ELISA) [1]: 0.2
KCKSKNPLLYDANYF | 0.7 | 0.7 | 0.4 | 0.5 | 0.5 | 0.4 | 0.5 | 0.4 | 0.6 | 0.8 | 0.5 | 0.2 | 0.2 | 0.4 | 0.7 | 0.6 | 0.5 | 0.7 | 0.2 | 0.6 | Binding of serum 62 to looped/cyclic peptide (PEPSCAN-ELISA) [1]: 0.7; Binding of serum London to looped/cyclic peptide (PEPSCAN-ELISA) [1]: 0.3; Binding of serum SARS-green to looped/cyclic peptide (PEPSCAN-ELISA) [1]: 0.3; Binding of serum SARS-yellow to looped/cyclic peptide (PEPSCAN-ELISA) [1]: 0.5
KDYVVVHGYFTEVYY | 0.7 |  | 0.6 |  | 0.5 |  | 0.4 |  | 0.6 |  | 0.5 | 0.2 | 0.2 | 0.3 | 0.5 | 0.5 | 0.6 | 0.5 | 0.1 | 0.5 | Binding of serum 1a to looped/cyclic peptides of protein X1 of SARS-CoV Urbani [1]: 0.5; Binding of serum 1b to looped/cyclic peptides of protein X1 of SARS-CoV Urbani [1]: 0.4; Binding of serum 2 to looped/cyclic peptides of protein X1 of SARS-CoV Urbani [1]: 0.4; Binding of serum 6 to looped/cyclic peptides of protein X1 of SARS-CoV Urbani [1]: 0.2; Binding of serum 37 to looped/cyclic peptides of protein X1 of SARS-CoV Urbani [1]: 0.6; Binding of serum 62 to looped/cyclic peptides of protein X1 of SARS-CoV Urbani [1]: 0.5; Binding of serum London to looped/cyclic peptides of protein X1 of SARS-CoV Urbani [1]: 0.2; Binding of serum SARS-green to looped/cyclic peptides of protein X1 of SARS-CoV Urbani [1]: 0.2; Binding of serum SARS-yellow to looped/cyclic peptides of protein X1 of SARS-CoV Urbani [1]: 0.5
KIILFLTLIVFTSCE |  |  |  |  |  |  |  |  |  |  |  |  |  |  | 0.8 | 0.8 | 0.9 | 0.9 |  |  | Binding of serum 1a to linear peptides of protein X4 of SARS-CoV Urbani [1]: 0.8; Binding of serum 1a to looped/cyclic peptides of protein X4 of SARS-CoV Urbani [1]: 0.9; Binding of serum 1b to linear peptides of protein X4 of SARS-CoV Urbani [1]: 0.9; Binding of serum 1b to looped/cyclic peptides of protein X4 of SARS-CoV Urbani [1]: 0.2; Binding of serum 2 to linear peptides of protein X4 of SARS-CoV Urbani [1]: 0.7; Binding of serum 2 to looped/cyclic peptides of protein X4 of SARS-CoV Urbani [1]: 0.8; Binding of serum 6 to linear peptides of protein X4 of SARS-CoV Urbani [1]: 0.7; Binding of serum 6 to looped/cyclic peptides of protein X4 of SARS-CoV Urbani [1]: 0.6; Binding of serum 37 to linear peptides of protein X4 of SARS-CoV Urbani [1]: 1.1; Binding of serum 37 to looped/cyclic peptides of protein X4 of SARS-CoV Urbani [1]: 0.9; Binding of serum 62 to linear peptides of protein X4 of SARS-CoV Urbani [1]: 0.9; Binding of serum 62 to looped/cyclic peptides of protein X4 of SARS-CoV Urbani [1]: 0.9; Binding of serum London to linear peptides of protein X4 of SARS-CoV Urbani [1]: 0.8; Binding of serum London to looped/cyclic peptides of protein X4 of SARS-CoV Urbani [1]: 0.4; Binding of serum SARS-green to linear peptides of protein X4 of SARS-CoV Urbani [1]: 0.7; Binding of serum SARS-green to looped/cyclic peptides of protein X4 of SARS-CoV Urbani [1]: 0.7; Binding of serum SARS-yellow to linear peptides of protein X4 of SARS-CoV Urbani [1]: 0.9; Binding of serum SARS-yellow to looped/cyclic peptides of protein X4 of SARS-CoV Urbani [1]: 0.8; Rabbit serum linear peptides [3]: 0.7; Rabbit serum looped peptides [3]: 0.9
KILVRYNTRGNTYST |  |  |  |  |  |  |  |  |  |  |  |  |  |  | 0.5 | 0.8 | 0.6 | 0.6 |  |  | Binding of serum 1a to linear peptides of protein X5 of SARS-CoV Urbani [1]: 0.7; Binding of serum 1a to looped/cyclic peptides of protein X5 of SARS-CoV Urbani [1]: 0.5; Binding of serum 1b to linear peptides of protein X5 of SARS-CoV Urbani [1]: 0.5; Binding of serum 1b to looped/cyclic peptides of protein X5 of SARS-CoV Urbani [1]: 0.3; Binding of serum 2 to linear peptides of protein X5 of SARS-CoV Urbani [1]: 0.7; Binding of serum 2 to looped/cyclic peptides of protein X5 of SARS-CoV Urbani [1]: 0.5; Binding of serum 6 to linear peptides of protein X5 of SARS-CoV Urbani [1]: 0.7; Binding of serum 6 to looped/cyclic peptides of protein X5 of SARS-CoV Urbani [1]: 0.5; Binding of serum 37 to linear peptides of protein X5 of SARS-CoV Urbani [1]: 0.7; Binding of serum 37 to looped/cyclic peptides of protein X5 of SARS-CoV Urbani [1]: 0.5; Binding of serum 62 to linear peptides of protein X5 of SARS-CoV Urbani [1]: 0.8; Binding of serum 62 to looped/cyclic peptides of protein X5 of SARS-CoV Urbani [1]: 0.7; Binding of serum London to linear peptides of protein X5 of SARS-CoV Urbani [1]: 0.7; Binding of serum London to looped/cyclic peptides of protein X5 of SARS-CoV Urbani [1]: 0.3; Binding of serum SARS-green to linear peptides of protein X5 of SARS-CoV Urbani [1]: 0.5; Binding of serum SARS-green to looped/cyclic peptides of protein X5 of SARS-CoV Urbani [1]: 0.3; Binding of serum SARS-yellow to linear peptides of protein X5 of SARS-CoV Urbani [1]: 0.1; Binding of serum SARS-yellow to looped/cyclic peptides of protein X5 of SARS-CoV Urbani [1]: 0.6; Rabbit serum linear peptides [3]: 0.7; Rabbit serum looped peptides [3]: 0.4
